Measurements reported in PubChem BioAssay AID1259407 (Chemical Carcinogenesis Research Information System (CCRIS), 2018).
Activity calls are given as the source filed them. The rule behind the calls is not given here.

Tested on: CCRIS mutagenicity, Ames/micronucleus/aberration tests
Assay: CCRIS mutagenicity studies
[1] = Test System: AMES SALMONELLA TYPHIMURIUM, Strain/Indicator: TA98, Metabolic Activation: NONE, Method: PREINCUBATION
[2] = Test System: AMES SALMONELLA TYPHIMURIUM, Strain/Indicator: TA98, Metabolic Activation: RAT, LIVER, S-9, AROCLOR 1254, Method: PREINCUBATION
[3] = Test System: AMES SALMONELLA TYPHIMURIUM, Strain/Indicator: TA100, Metabolic Activation: NONE, Method: PREINCUBATION
[4] = Test System: AMES SALMONELLA TYPHIMURIUM, Strain/Indicator: TA100, Metabolic Activation: RAT, LIVER, S-9, AROCLOR 1254, Method: PREINCUBATION
[5] = Test System: AMES SALMONELLA TYPHIMURIUM, Strain/Indicator: TA1535, Metabolic Activation: NONE, Method: PREINCUBATION
[6] = Test System: AMES SALMONELLA TYPHIMURIUM, Strain/Indicator: TA1537, Metabolic Activation: NONE, Method: PREINCUBATION
[7] = Test System: AMES SALMONELLA TYPHIMURIUM, Strain/Indicator: TA98, Metabolic Activation: NONE, Method: STANDARD PLATE
[8] = Test System: AMES SALMONELLA TYPHIMURIUM, Strain/Indicator: TA98, Metabolic Activation: RAT, LIVER, S-9, AROCLOR 1254, Method: STANDARD PLATE
[9] = Test System: AMES SALMONELLA TYPHIMURIUM, Strain/Indicator: TA100, Metabolic Activation: NONE, Method: STANDARD PLATE
[10] = Test System: AMES SALMONELLA TYPHIMURIUM, Strain/Indicator: TA100, Metabolic Activation: RAT, LIVER, S-9, AROCLOR 1254, Method: STANDARD PLATE

[Cl-].[Cl-].[NH2-].[NH2-].[NH2-].[NH2-].[Pt+2]
mutagenic call [1]: inactive; negative
mutagenic call [2]: inactive; negative
mutagenic call [3]: inactive; negative
mutagenic call [4]: inactive; negative

CCCCN(CCC(=O)OC)N=O
mutagenic call (Test System: AMES SALMONELLA TYPHIMURIUM, Strain/Indicator: TA1535, Metabolic Activation: RAT, LIVER, S-9, KC500 OR PHENOBARBITAL, Method: LIQUID SUSPENSION): active; positive

CNC(=O)c1cccc(NCC(=O)NCCc2ccc(OC)c(OC)c2)c1
mutagenic call [1]: inactive; negative
mutagenic call (Test System: AMES SALMONELLA TYPHIMURIUM, Strain/Indicator: TA98, Metabolic Activation: S-9, Method: PREINCUBATION): inactive; negative
mutagenic call [3]: inactive; negative
mutagenic call (Test System: AMES SALMONELLA TYPHIMURIUM, Strain/Indicator: TA100, Metabolic Activation: S-9, Method: PREINCUBATION): inactive; negative
mutagenic call [5]: inactive; negative
mutagenic call (Test System: AMES SALMONELLA TYPHIMURIUM, Strain/Indicator: TA1535, Metabolic Activation: S-9, Method: PREINCUBATION): inactive; negative
mutagenic call [6]: inactive; negative
mutagenic call (Test System: AMES SALMONELLA TYPHIMURIUM, Strain/Indicator: TA1537, Metabolic Activation: S-9, Method: PREINCUBATION): inactive; negative
mutagenic call (Test System: E. COLI, Strain/Indicator: WP2 UVRA, Metabolic Activation: NONE, Method: PREINCUBATION): inactive; negative
mutagenic call (Test System: E. COLI, Strain/Indicator: WP2 UVRA, Metabolic Activation: S-9, Method: PREINCUBATION): inactive; negative

CN(C)[C@@H]1C(=O)C(C(N)=O)=C(O)[C@@]2(O)C(=O)C3=C(O)c4c(O)cccc4[C@@](C)(O)[C@H]3[C@H](O)[C@@H]12
mutagenic call (End Point: AMES SALMONELLA TYPHIMURIUM, Test System: TA98, Metabolic Activation: NONE, Method: STANDARD PLATE): inactive; negative
mutagenic call (End Point: AMES SALMONELLA TYPHIMURIUM, Test System: TA100, Metabolic Activation: NONE, Method: STANDARD PLATE): inactive; negative
mutagenic call (End Point: IN VITRO CHROMOSOMAL ABERRATIONS, Test System: CHO CELLS, Metabolic Activation: NONE): inactive; negative
mutagenic call (End Point: IN VITRO CHROMOSOMAL ABERRATIONS, Test System: CHO CELLS, Metabolic Activation: RAT, LIVER, S-9, AROCLOR 1254): inactive; negative
mutagenic call (Test System: AMES SALMONELLA TYPHIMURIUM, Strain/Indicator: TA98, Metabolic Activation: HAMSTER, LIVER, S-9, AROCLOR 1254, Method: PREINCUBATION): inactive; negative
mutagenic call [1]: inactive; negative
mutagenic call [2]: inactive; negative
mutagenic call (Test System: AMES SALMONELLA TYPHIMURIUM, Strain/Indicator: TA100, Metabolic Activation: HAMSTER, LIVER, S-9, AROCLOR 1254, Method: PREINCUBATION): inactive; negative
mutagenic call [3]: inactive; negative
mutagenic call [4]: inactive; negative
mutagenic call (Test System: AMES SALMONELLA TYPHIMURIUM, Strain/Indicator: TA1535, Metabolic Activation: HAMSTER, LIVER, S-9, AROCLOR 1254, Method: PREINCUBATION): inactive; negative
mutagenic call [5]: inactive; negative
mutagenic call (Test System: AMES SALMONELLA TYPHIMURIUM, Strain/Indicator: TA1535, Metabolic Activation: RAT, LIVER, S-9, AROCLOR 1254, Method: PREINCUBATION): inactive; negative
mutagenic call (Test System: AMES SALMONELLA TYPHIMURIUM, Strain/Indicator: TA1537, Metabolic Activation: HAMSTER, LIVER, S-9, AROCLOR 1254, Method: PREINCUBATION): inactive; negative
mutagenic call [6]: inactive; negative
mutagenic call (Test System: AMES SALMONELLA TYPHIMURIUM, Strain/Indicator: TA1537, Metabolic Activation: RAT, LIVER, S-9, AROCLOR 1254, Method: PREINCUBATION): inactive; negative
mutagenic call (Test System: MOUSE LYMPHOMA, Strain/Indicator: L5178Y (TK+/TK-), Metabolic Activation: RAT, LIVER, S-9, AROCLOR 1254, Method: SUSPENSION/PLATE): active; positive

O.O=C([O-])c1ccccn1.O=C([O-])c1ccccn1.O=C([O-])c1ccccn1.[Cr+3]
mutagenic call (End Point: In vivo micronucleus, Test System: Peripheral blood normochromatic erythrocytes, Species: Mouse, Strain/Sex: B6C3F1/Female, Route: Oral): inactive; negative
mutagenic call (End Point: In vivo micronucleus, Test System: Peripheral blood normochromatic erythrocytes, Species: Mouse, Strain/Sex: B6C3F1/Male, Route: Oral): inactive; negative
mutagenic call (Test System: Ames Salmonella typhimurium, Strain/Indicator: TA98, Metabolic Activation: None, Method: Preincubation): inactive; negative
mutagenic call (Test System: Ames Salmonella typhimurium, Strain/Indicator: TA98, Metabolic Activation: Rat, Liver, S-9, Aroclor 1254 (10%), Method: Preincubation): inactive; negative
mutagenic call (Test System: Ames Salmonella typhimurium, Strain/Indicator: TA98, Metabolic Activation: Rat, Liver, S-9, Phenobarbital and 5,6-benzoflavone, Method: Preincubation): inactive; negative
mutagenic call (Test System: Ames Salmonella typhimurium, Strain/Indicator: TA100, Metabolic Activation: None, Method: Preincubation): inactive; negative
mutagenic call (Test System: Ames Salmonella typhimurium, Strain/Indicator: TA100, Metabolic Activation: Rat, Liver, S-9, Aroclor 1254 (10%), Method: Preincubation): inactive; negative
mutagenic call (Test System: Ames Salmonella typhimurium, Strain/Indicator: TA100, Metabolic Activation: Rat, Liver, S-9, Phenobarbital and 5,6-benzoflavone, Method: Preincubation): inactive; negative
mutagenic call (Test System: Ames Salmonella typhimurium, Strain/Indicator: TA1535, Metabolic Activation: None, Method: Preincubation): inactive; negative
mutagenic call (Test System: Ames Salmonella typhimurium, Strain/Indicator: TA1535, Metabolic Activation: Rat, Liver, S-9, Phenobarbital and 5,6-benzoflavone, Method: Preincubation): inactive; negative
mutagenic call (Test System: Ames Salmonella typhimurium, Strain/Indicator: TA1537, Metabolic Activation: None, Method: Preincubation): inactive; negative
mutagenic call (Test System: Ames Salmonella typhimurium, Strain/Indicator: TA1537, Metabolic Activation: Rat, Liver, S-9, Phenobarbital and 5,6-benzoflavone, Method: Preincubation): inactive; negative
mutagenic call (Test System: E. coli, Strain/Indicator: WP2 uvrA/pKM101, Metabolic Activation: None, Method: Preincubation): inactive; negative
mutagenic call (Test System: E. coli, Strain/Indicator: WP2uvrA/pKM101, Metabolic Activation: None, Method: Preincubation): inactive; negative
mutagenic call (Test System: E. coli, Strain/Indicator: WP2 uvrA/pKM101, Metabolic Activation: Rat, Liver, S-9, Aroclor 1254 (10%), Method: Preincubation): inactive; negative
mutagenic call (Test System: E. coli, Strain/Indicator: WP2uvrA/pKM101, Metabolic Activation: Rat, Liver, S-9, Phenobarbital and 5,6-benzoflavone, Method: Preincubation): inactive; negative

CN(C)c1ccc(C(=C2C=CC(=[N+](C)C)C=C2)c2ccc(N(C)C)cc2)cc1
mutagenic call (Test System: AMES SALMONELLA TYPHIMURIUM, Strain/Indicator: TA97, Metabolic Activation: NONE, Method: STANDARD PLATE): inactive; negative
mutagenic call [7]: inactive; negative
mutagenic call [8]: inactive; negative
mutagenic call [9]: inactive; negative
mutagenic call [10]: inactive; negative
mutagenic call (Test System: AMES SALMONELLA TYPHIMURIUM, Strain/Indicator: TA104, Metabolic Activation: NONE, Method: STANDARD PLATE): inactive; negative
mutagenic call (Test System: AMES SALMONELLA TYPHIMURIUM, Strain/Indicator: TA1535, Metabolic Activation: NONE, Method: STANDARD PLATE): inactive; negative
mutagenic call (Test System: AMES SALMONELLA TYPHIMURIUM, Strain/Indicator: TA1535, Metabolic Activation: RAT, LIVER, S-9, AROCLOR 1254, Method: STANDARD PLATE): inactive; negative
mutagenic call (Test System: CHINESE HAMSTER OVARY, Strain/Indicator: CHO-AS52 (GPT)/6-THIOGUANINE, Metabolic Activation: RAT, LIVER, S-9, AROCLOR 1254): inactive; negative
mutagenic call (Test System: CHINESE HAMSTER OVARY, Strain/Indicator: CHO-K1-BH4 (HPRT)/6-THIOGUANINE, Metabolic Activation: NONE): inactive; negative
mutagenic call (Test System: CHINESE HAMSTER OVARY, Strain/Indicator: CHO-K1-BH4 (HPRT)/6-THIOGUANINE, Metabolic Activation: RAT, LIVER, S-9, AROCLOR 1254): inactive; negative
mutagenic call (Test System: E. COLI, Strain/Indicator: DG1669, Metabolic Activation: NONE, Method: STANDARD PLATE): active; positive
mutagenic call (Test System: E. COLI, Strain/Indicator: DG1669, Metabolic Activation: RAT, LIVER, S-9, AROCLOR 1254, Method: STANDARD PLATE): active; positive

NC(=O)C1(N2CCCCC2)CCN(CCCC(=O)c2ccc(F)cc2)CC1
mutagenic call (End Point: IN VITRO CHROMOSOMAL ABERRATIONS, Test System: HUMAN LYMPHOCYTES, Metabolic Activation: NONE): inactive; negative

O=C(O)Nc1ccccc1
mutagenic call [7]: inactive; negative
mutagenic call [8]: inactive; negative
mutagenic call [9]: inactive; negative
mutagenic call [10]: inactive; negative
